Source: US7695930B2, “Method for the detection, identification and/or quantification of microoganisms with peptidase activity using phenoxazinone derivatives as enzyme substrates” (Biomerieux, priority 2003, dated 2010)

Tests used:
Assay in all cases: Leucine-peptidase detection on agar medium (Example 11); as to color of the colony: key: B corresponds to fluorescent blue; R corresponds to pink
Assay type in all cases: cell-based
Enterococcus faecalis = tested on: Enterococcus faecalis; as to color of the colony: key: B corresponds to fluorescent blue; R corresponds to pink
Description: (§1) The detection medium was prepared by mixing 1.4 g of biogelytone (bioMérieux), 0.84 g of meat extract (bioMérieux), 2.24 g of NaCl (Merck), 280 μl of a solution of IPTG (isopropylthio-β-D-galactopyranoside, BIOSYNTH) in water (concentration 10 g/l) and 4.2 g of European agar (bioMérieux).
(§2) The substrate of the invention obtained in Example 2, in which the amino acid is leucine (leucine-9-aminobenzo[a]phenoxazin-5-one or Leu-ABP), or else a substrate of the prior art, which is leucine-aminomethylcoumarin (Leu-AMC, BACHEM), was then added in the following way: 280 ml of osmosed water were added to the medium, and the mixture was melted in a waterbath at 100° C. The mixture was autoclaved for 15 min at 121° C. and cooled to 50° C. in a waterbath.
(§3) The medium was then poured into Petri dishes.
(§4) The coloration of these colonies, the diffusion, and also the intensity of this coloration were noted.
(§5) The results were expressed as intensity of coloration using an arbitrary scale ranging from 0 to 4 as a basis and also as diffusion also using an arbitrary scale ranging from 0 to 4 as a basis.

Serratia marcescens = tested on: Serratia marcescens; as to color of the colony: key: B corresponds to fluorescent blue; R corresponds to pink
Description: as §1, §2, §3, §4, §5

Citrobacter freundii = tested on: Citrobacter freundii; as to color of the colony: key: B corresponds to fluorescent blue; R corresponds to pink
Description: as §1, §2, §3, §4, §5

Pseudomonas aeruginosa = tested on: Pseudomonas aeruginosa; as to color of the colony: key: B corresponds to fluorescent blue; R corresponds to pink
Description: as §1, §2, §3, §4, §5

Candida albicans = tested on: Candida albicans; as to color of the colony: key: B corresponds to fluorescent blue; R corresponds to pink
Description: as §1, §2, §3, §4, §5

Enterobacter cloaccae = tested on: Enterobacter cloaccae; as to color of the colony: key: B corresponds to fluorescent blue; R corresponds to pink
Description: as §1, §2, §3, §4, §5

leucine-9-aminobenzo[a]phenoxazin-5-one [Leu-ABP]
color of the colony (Enterococcus faecalis; 24 h, 25 mg/l): R
growth diameter (Enterococcus faecalis; 24 h, 25 mg/l): 0.3 mm
intensity of coloration, scale 0 to 4 (Enterococcus faecalis; 24 h, 25 mg/l): 0.0
color of the colony (Enterococcus faecalis; 24 h, 50 mg/l): R
growth diameter (Enterococcus faecalis; 24 h, 50 mg/l): 0.3 mm
intensity of coloration, scale 0 to 4 (Enterococcus faecalis; 24 h, 50 mg/l): 0.0
growth diameter (Enterococcus faecalis; 24 h, 100 mg/l): 0.3 mm
growth diameter (Enterococcus faecalis; 24 h, 200 mg/l): 0.3 mm
growth diameter (Enterococcus faecalis; 24 h, 400 mg/l): 0.3 mm
color of the colony (Enterococcus faecalis; 48 h, 25 mg/l): R
growth diameter (Enterococcus faecalis; 48 h, 25 mg/l): 0.3 mm
intensity of coloration, scale 0 to 4 (Enterococcus faecalis; 48 h, 25 mg/l): 0.0
color of the colony (Enterococcus faecalis; 48 h, 50 mg/l): R
growth diameter (Enterococcus faecalis; 48 h, 50 mg/l): 0.3 mm
intensity of coloration, scale 0 to 4 (Enterococcus faecalis; 48 h, 50 mg/l): 0.0
color of the colony (Enterococcus faecalis; 48 h, 100 mg/l): R
growth diameter (Enterococcus faecalis; 48 h, 100 mg/l): 0.3 mm
intensity of coloration, scale 0 to 4 (Enterococcus faecalis; 48 h, 100 mg/l): 0.0
growth diameter (Enterococcus faecalis; 48 h, 200 mg/l): 0.3 mm
color of the colony (Enterococcus faecalis; 48 h, 400 mg/l): R
growth diameter (Enterococcus faecalis; 48 h, 400 mg/l): 0.3 mm
intensity of coloration, scale 0 to 4 (Enterococcus faecalis; 48 h, 400 mg/l): 0.5
color of the colony (Serratia marcescens; 24 h, 25 mg/l): R
growth diameter (Serratia marcescens; 24 h, 25 mg/l): 0.5 mm
intensity of coloration, scale 0 to 4 (Serratia marcescens; 24 h, 25 mg/l): 0.5
color of the colony (Serratia marcescens; 24 h, 50 mg/l): R
growth diameter (Serratia marcescens; 24 h, 50 mg/l): 0.4 mm
intensity of coloration, scale 0 to 4 (Serratia marcescens; 24 h, 50 mg/l): 1
color of the colony (Serratia marcescens; 24 h, 100 mg/l): R
growth diameter (Serratia marcescens; 24 h, 100 mg/l): 0.4 mm
intensity of coloration, scale 0 to 4 (Serratia marcescens; 24 h, 100 mg/l): 0.25
growth diameter (Serratia marcescens; 24 h, 200 mg/l): 0.4 mm
growth diameter (Serratia marcescens; 24 h, 400 mg/l): 0.4 mm
color of the colony (Serratia marcescens; 48 h, 25 mg/l): R
growth diameter (Serratia marcescens; 48 h, 25 mg/l): 0.7 mm
intensity of coloration, scale 0 to 4 (Serratia marcescens; 48 h, 25 mg/l): 2.5
color of the colony (Serratia marcescens; 48 h, 50 mg/l): R
growth diameter (Serratia marcescens; 48 h, 50 mg/l): 0.5 mm
intensity of coloration, scale 0 to 4 (Serratia marcescens; 48 h, 50 mg/l): 3
color of the colony (Serratia marcescens; 48 h, 100 mg/l): R
growth diameter (Serratia marcescens; 48 h, 100 mg/l): 0.5 mm
intensity of coloration, scale 0 to 4 (Serratia marcescens; 48 h, 100 mg/l): 1.5
color of the colony (Serratia marcescens; 48 h, 200 mg/l): R
growth diameter (Serratia marcescens; 48 h, 200 mg/l): 0.5 mm
intensity of coloration, scale 0 to 4 (Serratia marcescens; 48 h, 200 mg/l): 1
color of the colony (Serratia marcescens; 48 h, 400 mg/l): R
growth diameter (Serratia marcescens; 48 h, 400 mg/l): 0.5 mm
intensity of coloration, scale 0 to 4 (Serratia marcescens; 48 h, 400 mg/l): 0.5
color of the colony (Citrobacter freundii; 24 h, 25 mg/l): R
growth diameter (Citrobacter freundii; 24 h, 25 mg/l): 0.7 mm
intensity of coloration, scale 0 to 4 (Citrobacter freundii; 24 h, 25 mg/l): 1.5
color of the colony (Citrobacter freundii; 24 h, 50 mg/l): R
growth diameter (Citrobacter freundii; 24 h, 50 mg/l): 0.7 mm
intensity of coloration, scale 0 to 4 (Citrobacter freundii; 24 h, 50 mg/l): 1.5
color of the colony (Citrobacter freundii; 24 h, 100 mg/l): R
growth diameter (Citrobacter freundii; 24 h, 100 mg/l): 0.7 mm
intensity of coloration, scale 0 to 4 (Citrobacter freundii; 24 h, 100 mg/l): 0.75
color of the colony (Citrobacter freundii; 24 h, 200 mg/l): R
growth diameter (Citrobacter freundii; 24 h, 200 mg/l): 0.8 mm
intensity of coloration, scale 0 to 4 (Citrobacter freundii; 24 h, 200 mg/l): 1
color of the colony (Citrobacter freundii; 24 h, 400 mg/l): R
growth diameter (Citrobacter freundii; 24 h, 400 mg/l): 0.7 mm
intensity of coloration, scale 0 to 4 (Citrobacter freundii; 24 h, 400 mg/l): 2
color of the colony (Citrobacter freundii; 48 h, 25 mg/l): R
growth diameter (Citrobacter freundii; 48 h, 25 mg/l): 0.7 mm
intensity of coloration, scale 0 to 4 (Citrobacter freundii; 48 h, 25 mg/l): 2.5
color of the colony (Citrobacter freundii; 48 h, 50 mg/l): R
growth diameter (Citrobacter freundii; 48 h, 50 mg/l): 0.7 mm
intensity of coloration, scale 0 to 4 (Citrobacter freundii; 48 h, 50 mg/l): 2.5
color of the colony (Citrobacter freundii; 48 h, 100 mg/l): R
growth diameter (Citrobacter freundii; 48 h, 100 mg/l): 0.7 mm
intensity of coloration, scale 0 to 4 (Citrobacter freundii; 48 h, 100 mg/l): 1.5
color of the colony (Citrobacter freundii; 48 h, 200 mg/l): R
growth diameter (Citrobacter freundii; 48 h, 200 mg/l): 0.8 mm
intensity of coloration, scale 0 to 4 (Citrobacter freundii; 48 h, 200 mg/l): 2
color of the colony (Citrobacter freundii; 48 h, 400 mg/l): R
growth diameter (Citrobacter freundii; 48 h, 400 mg/l): 0.7 mm
intensity of coloration, scale 0 to 4 (Citrobacter freundii; 48 h, 400 mg/l): 2
growth diameter (Pseudomonas aeruginosa; 24 h, 25 mg/l): 2 mm
color of the colony (Pseudomonas aeruginosa; 24 h, 50 mg/l): R
growth diameter (Pseudomonas aeruginosa; 24 h, 50 mg/l): 2 mm
intensity of coloration, scale 0 to 4 (Pseudomonas aeruginosa; 24 h, 50 mg/l): 0.75
color of the colony (Pseudomonas aeruginosa; 24 h, 100 mg/l): R
growth diameter (Pseudomonas aeruginosa; 24 h, 100 mg/l): 2 mm
intensity of coloration, scale 0 to 4 (Pseudomonas aeruginosa; 24 h, 100 mg/l): 0.75
color of the colony (Pseudomonas aeruginosa; 24 h, 200 mg/l): R
growth diameter (Pseudomonas aeruginosa; 24 h, 200 mg/l): 2 mm
intensity of coloration, scale 0 to 4 (Pseudomonas aeruginosa; 24 h, 200 mg/l): 0.5
color of the colony (Pseudomonas aeruginosa; 24 h, 400 mg/l): R
growth diameter (Pseudomonas aeruginosa; 24 h, 400 mg/l): 2 mm
intensity of coloration, scale 0 to 4 (Pseudomonas aeruginosa; 24 h, 400 mg/l): 0.5
color of the colony (Pseudomonas aeruginosa; 48 h, 25 mg/l): R
growth diameter (Pseudomonas aeruginosa; 48 h, 25 mg/l): 2 mm
intensity of coloration, scale 0 to 4 (Pseudomonas aeruginosa; 48 h, 25 mg/l): 1
color of the colony (Pseudomonas aeruginosa; 48 h, 50 mg/l): R
growth diameter (Pseudomonas aeruginosa; 48 h, 50 mg/l): 2 mm
intensity of coloration, scale 0 to 4 (Pseudomonas aeruginosa; 48 h, 50 mg/l): 2.5
color of the colony (Pseudomonas aeruginosa; 48 h, 100 mg/l): R
growth diameter (Pseudomonas aeruginosa; 48 h, 100 mg/l): 2 mm
intensity of coloration, scale 0 to 4 (Pseudomonas aeruginosa; 48 h, 100 mg/l): 2.5
color of the colony (Pseudomonas aeruginosa; 48 h, 200 mg/l): R
growth diameter (Pseudomonas aeruginosa; 48 h, 200 mg/l): 2 mm
intensity of coloration, scale 0 to 4 (Pseudomonas aeruginosa; 48 h, 200 mg/l): 2
color of the colony (Pseudomonas aeruginosa; 48 h, 400 mg/l): R
growth diameter (Pseudomonas aeruginosa; 48 h, 400 mg/l): 2 mm
intensity of coloration, scale 0 to 4 (Pseudomonas aeruginosa; 48 h, 400 mg/l): 0.5
growth diameter (Candida albicans; 24 h, 25 mg/l): 0.3 mm
color of the colony (Candida albicans; 48 h, 25 mg/l): R
growth diameter (Candida albicans; 48 h, 25 mg/l): 0.5 mm
intensity of coloration, scale 0 to 4 (Candida albicans; 48 h, 25 mg/l): 0.25
growth diameter (Candida albicans; 48 h, 50 mg/l): 0.3 mm
color of the colony (Enterobacter cloaccae; 24 h, 25 mg/l): R
growth diameter (Enterobacter cloaccae; 24 h, 25 mg/l): 0.7 mm
intensity of coloration, scale 0 to 4 (Enterobacter cloaccae; 24 h, 25 mg/l): 1.5
color of the colony (Enterobacter cloaccae; 24 h, 50 mg/l): R
growth diameter (Enterobacter cloaccae; 24 h, 50 mg/l): 0.5 mm
intensity of coloration, scale 0 to 4 (Enterobacter cloaccae; 24 h, 50 mg/l): 2.5
color of the colony (Enterobacter cloaccae; 24 h, 100 mg/l): R
growth diameter (Enterobacter cloaccae; 24 h, 100 mg/l): 1 mm
intensity of coloration, scale 0 to 4 (Enterobacter cloaccae; 24 h, 100 mg/l): 3
color of the colony (Enterobacter cloaccae; 24 h, 200 mg/l): R
growth diameter (Enterobacter cloaccae; 24 h, 200 mg/l): 1.5 mm
intensity of coloration, scale 0 to 4 (Enterobacter cloaccae; 24 h, 200 mg/l): 3
color of the colony (Enterobacter cloaccae; 24 h, 400 mg/l): R
growth diameter (Enterobacter cloaccae; 24 h, 400 mg/l): 1.5 mm
intensity of coloration, scale 0 to 4 (Enterobacter cloaccae; 24 h, 400 mg/l): 3
color of the colony (Enterobacter cloaccae; 48 h, 25 mg/l): R
growth diameter (Enterobacter cloaccae; 48 h, 25 mg/l): 0.7 mm
intensity of coloration, scale 0 to 4 (Enterobacter cloaccae; 48 h, 25 mg/l): 2.5
color of the colony (Enterobacter cloaccae; 48 h, 50 mg/l): R
growth diameter (Enterobacter cloaccae; 48 h, 50 mg/l): 0.5 mm
intensity of coloration, scale 0 to 4 (Enterobacter cloaccae; 48 h, 50 mg/l): 3
color of the colony (Enterobacter cloaccae; 48 h, 100 mg/l): R
growth diameter (Enterobacter cloaccae; 48 h, 100 mg/l): 1.3 mm
intensity of coloration, scale 0 to 4 (Enterobacter cloaccae; 48 h, 100 mg/l): 3
color of the colony (Enterobacter cloaccae; 48 h, 200 mg/l): R
growth diameter (Enterobacter cloaccae; 48 h, 200 mg/l): 1.5 mm
intensity of coloration, scale 0 to 4 (Enterobacter cloaccae; 48 h, 200 mg/l): 3
color of the colony (Enterobacter cloaccae; 48 h, 400 mg/l): R
growth diameter (Enterobacter cloaccae; 48 h, 400 mg/l): 1.7 mm
intensity of coloration, scale 0 to 4 (Enterobacter cloaccae; 48 h, 400 mg/l): 3
